Laboratory results from patent publication US20130072385A1, “METHODS FOR DELAYING BUD BREAK BY APPLYING ABA ANALOGS” (priority 2011, published 2013).

Tests used:
Concord grapevines [1] = test: Fall soil drench of potted Concord grapevines, bud break the following spring; type: in vivo; conditions: 1000 ppm (1000 mg/pot) fall soil drench
Protocol: A study was conducted to determine the effect of application of ABA or ABA analog as a soil drench in the fall on bud break of potted Concord grapevines the following spring. Two year old eco-dormant Concord grapevines were obtained from a Concord Nurseries in the spring. Bare-root vines were planted in 14 liter pots filled with Promix BX (available from Premier Horticulture Inc. Quakertown, Pa.) and grown outside for about 5 months (May October) prior to treatment. Plants received irrigation as needed and fertilized weekly (1 g/L all purpose fertilizer 20-20-20, The Scotts Company, Marysville, Ohio). Uniform plants were selected for the study. A total of 1000 mL of water or chemical solution was applied to the soil of each plant.
After chemical treatment, the ten replicate plants per treatment were arranged in a randomized complete block experimental design. The potted vines were surrounded by bark chips the depth of the soil in the pot to insulate the roots and prevent cold damage. The plants became dormant for the winter. In the following spring the vines were pruned to 5 buds per vine before bud break and bud break was monitored over time (Table 4). The buds were rated for bud break periodically on a scale from 1 for no growth to 6 for three or more leaves showing
Potted Concord grapevines were treated with 1000 mL water, solution containing 1000 mg ABA or solution containing 100 mg PBI-429. The dose of RBI-429 was used at one-tenth of ABA dose based on the preliminary results.

Concord grapevines [2] = test: Repeated spray of potted Concord grapevines during the bud break period; type: in vivo; conditions: for Average number of broken buds per vine: 1000 ppm in 0.05% Silwet L77, repeated spray
Protocol: A study was conducted to determine the effect of spraying Concord grapevines with ABA or ABA analog PBI-429 during bud break. Potted concord grapevines were placed in greenhouse conditions to promote bud break and the vines were repeatedly sprayed with ABA or ABA analog solutions. The vines were sprayed 2, 4, 8, 12 and 14 days after exposure of the vines into bud break promoting temperatures. Bud break was rated 6, 7, 8, 11, 12, 13, 14, 15, 19 and 20 days after vines were placed in warm bud break promoting conditions.

PF-11 nectarine trees [3] = test: Fall foliar spray of PF-11 nectarine trees, bud break the following spring; type: in vivo; conditions: 10,000 ppm in 0.1% Brij 98, fall foliar application; April 8
Protocol: (§1) A study was conducted to determine the effect of spraying nectarine trees with ABA or ABA analogs in the fall on bud break the following spring. Mature PF-11 nectarine trees were sprayed to drip with surfactant alone or surfactant and ABA or ABA analog on Oct. 19, 2009. Trees were sprayed with approximately 500 ml (20.5 grams ABA analog/acre) applied to each of 6 trees per treatment arranged in a randomized complete block design. The following spring bud break on pre-selected branches was monitored.

Seyval Blanc grapevines = test: Soil drench of potted grapevines near the time of bud break, Seyval Blanc; type: in vivo
Protocol: A study was conducted to determine the effect of ABA applied to the soil of potted grapevines near the time of bud break. Eco-dormant bare-root Seyval Blanc and Canadice grapevines were purchased from Concord Nurseries, North Collins, N.Y. Vines were planted in pots of Promix potting mixture and held in a 5° C. dark chamber prior to treatment. Plants were moved from the 5° C. chamber to a greenhouse set to 20° C. night/25° C. day with a 12 hour light and 12 hour dark light cycle to promote bud break. One group of 5 plants was treated with 250 ml of 1000 ppm ABA (250 mg) as a soil drench 2 days after moving the vines to warm conditions. Another group of vines was treated 6 days after warming and another group of 5 plants was treated 10 days after warming. With the Seyval Blanc grapevines one group of 5 plants was treated at all 3 timings 2, 6, and 10 days after warming (750 mg total). Another group of 5 vines was not treated and acted as an untreated control. […]

PF-11 nectarine trees [4] = test: Fall foliar spray of PF-11 nectarine trees, fruit number per tree the following spring; type: in vivo; conditions: 10,000 ppm in 0.1% Brij 98, fall foliar application; June 10
Protocol: as §1

Concord grape vines = test: Spring spray of eco-dormant field grown Concord grape vines, bud break; type: in vivo, Concord grapevines; conditions: sprayed 2 times in spring
Protocol: A study was conducted to evaluate the effect of spraying eco-dormant Concord grape vines with ABA or ABA analog plus surfactants on bud break. Mature field grown Concord grape vines were sprayed to runoff 2 times in the spring after pruning and before bud swell. Three replicates of 3 vines each were treated with each treatment solution. Treatments were arranged in a randomized complete block design down a single vineyard row, Bud break was monitored by counting the number of broken buds of the distal 5 buds on 4 proximal canes on the middle vine of each 3 vine replicate. Bud break was only very slightly delayed by any of the treatments compared to the water sprayed control (Table 1).

perennial plant = test: Applicants' field studies over several years on perennial plant bud break; type: in vivo; conditions: even at high levels, at every application time
Description: In order to determine the role ABA had on perennial plant bud break, Applicants conducted field studies for several years. After many experiments.

In the case of “(S)-5-(1-hydroxy-2,6,6)-trimethyl-4-oxo-2-cyclohexen-1-yl)-3-methyl-(2 Z,4E)-pentadienoic acid [ABA]”, the “Average rating of bud break (1-6 scale)” value (Concord grapevines [1]; Apr. 23, 2008) is reported as 1.0, the “Average rating of bud break (1-6 scale)” value (Concord grapevines [1]; April 28) is reported as 1.6 and the “Average rating of bud break (1-6 scale)” value (Concord grapevines [1]; April 30) is reported as 1.8. For the same substance, the “Average rating of bud break (1-6 scale)” value (Concord grapevines [1]; May 2) was 1.8, the “Average rating of bud break (1-6 scale)” value (Concord grapevines [1]; May 5) was 2.1 and the “Average rating of bud break (1-6 scale)” value (Concord grapevines [1]; May 7) was 2.6. The “Average rating of bud break (1-6 scale)” value (Concord grapevines [1]; May 9) was 2.9, the “Average rating of bud break (1-6 scale)” value (Concord grapevines [1]; May 12) was 3.0 and the “Average rating of bud break (1-6 scale)” value (Concord grapevines [1]; May 14) was 3.0. The “Average rating of bud break (1-6 scale)” value (Concord grapevines [1]; May 16) was 3.4, the “Average rating of bud break (1-6 scale)” value (Concord grapevines [1]; May 19) was 4.2 and the “Average rating of bud break (1-6 scale)” value (Concord grapevines [1]; May 21) was 4.6. For the same substance, the “Average rating of bud break (1-6 scale)” value (Concord grapevines [1]; May 23) was 4.9, the “Average rating of bud break (1-6 scale)” value (Concord grapevines [1]; May 28) was 5.4 and the “Average number of broken buds per vine” value (Concord grapevines [2]; 6 days after warming) was 0.2. For the same substance, the “Average number of broken buds per vine” value (Concord grapevines [2]; 7 days after warming) was 0.2, the “Average number of broken buds per vine” value (Concord grapevines [2]; 8 days after warming) was 0.8 and the “Average number of broken buds per vine” value (Concord grapevines [2]; 11 days after warming) was 2.8. The “Average number of broken buds per vine” value (Concord grapevines [2]; 12 days after warming) was 3.2, the “Average number of broken buds per vine” value (Concord grapevines [2]; 13 days after warming) was 3.8 and the “Average number of broken buds per vine” value (Concord grapevines [2]; 14 days after warming) was 4.8. For the same substance, the “Average number of broken buds per vine” value (Concord grapevines [2]; 15 days after warming) was 5.3, the “Average number of broken buds per vine” value (Concord grapevines [2]; 19 days after warming) was 7.0 and the “Average number of broken buds per vine” value (Concord grapevines [2]; 20 days after warming) was 7.0. For the same substance, the “Effect on average number of broken buds over time” value (Concord grapevines [2]; repeated spray application during the bud break period) was “not significantly impacted”, the “Percentage of broken floral buds” value (PF-11 nectarine trees [3]) was 78 Percentage and the “Average number of broken buds per vine” value (Seyval Blanc grapevines; 1000 ppm soil drench 2, 6 and 10 days after warming, evaluated 13 days after warming) was 1.2. For the same substance, the “Average number of broken buds per vine” value (Seyval Blanc grapevines; 1000 ppm soil drench 2, 6 and 10 days after warming, evaluated 14 days after warming) was 4.4, the “Average number of broken buds per vine” value (Seyval Blanc grapevines; 1000 ppm soil drench 2, 6 and 10 days after warming, evaluated 15 days after warming) was 4.8 and the “Average number of broken buds per vine” value (Seyval Blanc grapevines; 1000 ppm soil drench 2, 6 and 10 days after warming, evaluated 16 days after warming) was 7.0. The “Delay of bud break” value (Seyval Blanc grapevines; 1000 ppm soil drench 13-16 days before bud break, cultivar not stated (Seyval Blanc and Canadice study)) was 3.5 days, the “Average number of broken buds per vine” value (Seyval Blanc grapevines; 1000 ppm soil drench 2 days after warming, evaluated 13 days after warming) was 0.4 and the “Average number of broken buds per vine” value (Seyval Blanc grapevines; 1000 ppm soil drench 2 days after warming, evaluated 14 days after warming) was 2.2. The “Average number of broken buds per vine” value (Seyval Blanc grapevines; 1000 ppm soil drench 2 days after warming, evaluated 15 days after warming) was 3.6, the “Average number of broken buds per vine” value (Seyval Blanc grapevines; 1000 ppm soil drench 2 days after warming, evaluated 16 days after warming) was 6.8 and the “Average number of broken buds per vine” value (Seyval Blanc grapevines; 1000 ppm soil drench 6 days after warming, evaluated 13 days after warming) was 0.2. For the same substance, the “Average number of broken buds per vine” value (Seyval Blanc grapevines; 1000 ppm soil drench 6 days after warming, evaluated 14 days after warming) was 1.6, the “Average number of broken buds per vine” value (Seyval Blanc grapevines; 1000 ppm soil drench 6 days after warming, evaluated 15 days after warming) was 2.6 and the “Average number of broken buds per vine” value (Seyval Blanc grapevines; 1000 ppm soil drench 6 days after warming, evaluated 16 days after warming) was 6.8. The “Average number of broken buds per vine” value (Seyval Blanc grapevines; 1000 ppm soil drench 10 days after warming, evaluated 13 days after warming) was 1.8, the “Average number of broken buds per vine” value (Seyval Blanc grapevines; 1000 ppm soil drench 10 days after warming, evaluated 14 days after warming) was 6.0 and the “Average number of broken buds per vine” value (Seyval Blanc grapevines; 1000 ppm soil drench 10 days after warming, evaluated 15 days after warming) was 8.6. For the same substance, the “Average number of broken buds per vine” value (Seyval Blanc grapevines; 1000 ppm soil drench 10 days after warming, evaluated 16 days after warming) was 11.4, the “Average number of fruit per tree” value (PF-11 nectarine trees [4]) was 55 and the “Average percent broken buds” value (Concord grape vines; April 24, 1,000 ppm ABA plus 0.5% Brij 98) was 8%. For the same substance, the “Average percent broken buds” value (Concord grape vines; April 24, 1,000 ppm plus 0.5% Pentrabark) was 2%, the “Average percent broken buds” value (Concord grape vines; April 24, 10,000 ppm ABA plus 0.5% Brij 98) was 5% and the “Average percent broken buds” value (Concord grape vines; April 30, 1,000 ppm ABA plus 0.5% Brij 98) was 13%. The “Average percent broken buds” value (Concord grape vines; April 30, 1,000 ppm plus 0.5% Pentrabark) was 13%, the “Average percent broken buds” value (Concord grape vines; April 30, 10,000 ppm ABA plus 0.5% Brij 98) was 18% and the “Effect on bud break” value (perennial plant) was “no appreciable effect on bud break”.
